Measurements taken from patent US12215140B2, “Method of stabilizing protein contained in specimen and solution for stabilizing protein contained in specimen” (EIKEN KAGAKU KABUSHIKI KAISHA, priority 2018, dated 2025).

Tested on: hemoglobin-haptoglobin complex
Assay: Stability of hemoglobin (as hemoglobin-haptoglobin complex) in samples preserved at 37° C. in preservation solution containing 1 unit/L haptoglobin, Hb measured by latex agglutination method (Examples 1 to 7)
Design: species or system human
Settings: for Hb concentration / Recovery ratio with respect to Hb concentration after 0 days: 37° C.
Description: Preservation solutions were prepared with the addition of 40 mmol/L HEPES (pH 6.8), 0.1% BSA, 0.1% NaN3, 1 unit/L haptoglobin, and 0 to 100 mmol/L phenylboronic acid. Samples obtained by adding hemoglobin-added fecal specimens to the preservation solutions so that the fecal concentration would be 0.5% were preserved at 37° C. for 0, 7, 14, and 21 days. The fecal specimens were added with hemoglobin having an amount such that the hemoglobin concentration in the samples would be about 300 μg/L. Instead of the fecal specimens to which hemoglobin was added, samples containing no fecal specimens, in which hemoglobin was added to the preservation solutions so that the hemoglobin concentration in the samples would be 300 μg/L, were similarly preserved. The hemoglobin (Hb) concentrations (μg/L) in the preserved samples were measured by the latex agglutination method.
The concentrations of hemoglobin were measured using “OC-Hemodia (registered trademark) Auto III ‘EIKEN’” (available from EIKEN CHEMICAL CO., LTD.) as a measurement reagent and “OC-sensor DIANA” (available from EIKEN CHEMICAL CO., LTD.) as a measurement device. The above measurement reagent contains latex particles immobilizing an anti-human hemoglobin rabbit polyclonal antibody.
From the measured concentrations of hemoglobin, the recovery ratios (%) were calculated with respect to the hemoglobin concentrations immediately after the fecal specimens were added to the preservation solutions (i.e., concentrations 0 days after the fecal specimens were added).
(§1) For comparative examples, preservation solutions to which no arylboronic acid was added were prepared, and testing was conducted in the same manner.
(§2) The concentration of phenylboronic acid in the preservation solutions of Example 1 was fixed to 15 mmol/L, preservation solutions to which a sugar (sorbitol, sucrose, trehalose, glucose, fructose, or mannitol) was further added at 50 mmol/L or 100 mmol/L or preservation solutions to which no sugar was added were prepared, and testing was conducted in the same manner as in Example 1. For comparative examples, preservation solutions to which the phenylboronic acid and sugar were not added were prepared, and testing was conducted in the same manner.
Preservation solutions in which sorbitol, sucrose, trehalose, glucose, fructose, or mannitol was added at 100 mmol/L to the preservation solutions of Example 1 containing no phenylboronic acid were prepared, and testing was conducted in the same manner as in Example 1. For comparison, the same testing was conducted without adding these sugars.
as §2, with “sorbitol” for “a sugar (sorbitol, sucrose, trehalose, glucose, fructose, or mannitol)”, “was” for “was further”, “10 to 500” for “50”, “sucrose was added at 10 to 250” for “100”
as §1

[1] = Feces 1, sugar 50 mmol/L + phenylboronic acid 15 mmol/L, 0 days
[2] = Feces 1, sugar 50 mmol/L + phenylboronic acid 15 mmol/L, 7 days
[3] = Feces 1, sugar 50 mmol/L + phenylboronic acid 15 mmol/L, 14 days
[4] = Feces 1, sugar 50 mmol/L + phenylboronic acid 15 mmol/L, 21 days
[5] = Feces 1, sugar 100 mmol/L + phenylboronic acid 15 mmol/L, 0 days
[6] = Feces 1, sugar 100 mmol/L + phenylboronic acid 15 mmol/L, 7 days
[7] = Feces 1, sugar 100 mmol/L + phenylboronic acid 15 mmol/L, 14 days
[8] = Feces 1, sugar 100 mmol/L + phenylboronic acid 15 mmol/L, 21 days
[9] = Feces 1, sugar 100 mmol/L, no phenylboronic acid, 0 days
[10] = Feces 1, sugar 100 mmol/L, no phenylboronic acid, 7 days
[11] = Feces 1, sugar 100 mmol/L, no phenylboronic acid, 14 days
[12] = Feces 1, sugar 100 mmol/L, no phenylboronic acid, 21 days
[13] = Feces 2, sugar 50 mmol/L + phenylboronic acid 15 mmol/L, 0 days
[14] = Feces 2, sugar 50 mmol/L + phenylboronic acid 15 mmol/L, 7 days
[15] = Feces 2, sugar 50 mmol/L + phenylboronic acid 15 mmol/L, 14 days
[16] = Feces 2, sugar 50 mmol/L + phenylboronic acid 15 mmol/L, 21 days
[17] = Feces 2, sugar 100 mmol/L + phenylboronic acid 15 mmol/L, 0 days
[18] = Feces 2, sugar 100 mmol/L + phenylboronic acid 15 mmol/L, 14 days
[19] = Feces 2, sugar 100 mmol/L + phenylboronic acid 15 mmol/L, 21 days
[20] = Feces 2, sugar 100 mmol/L, no phenylboronic acid, 0 days
[21] = Feces 2, sugar 100 mmol/L, no phenylboronic acid, 7 days
[22] = Feces 2, sugar 100 mmol/L, no phenylboronic acid, 14 days
[23] = Feces 2, sugar 100 mmol/L, no phenylboronic acid, 21 days
[24] = Feces 3, sugar 50 mmol/L + phenylboronic acid 15 mmol/L, 0 days
[25] = Feces 3, sugar 50 mmol/L + phenylboronic acid 15 mmol/L, 7 days
[26] = Feces 3, sugar 50 mmol/L + phenylboronic acid 15 mmol/L, 14 days
[27] = Feces 3, sugar 50 mmol/L + phenylboronic acid 15 mmol/L, 21 days
[28] = Feces 3, sugar 100 mmol/L + phenylboronic acid 15 mmol/L, 0 days
[29] = Feces 3, sugar 100 mmol/L + phenylboronic acid 15 mmol/L, 7 days
[30] = Feces 3, sugar 100 mmol/L + phenylboronic acid 15 mmol/L, 14 days
[31] = Feces 3, sugar 100 mmol/L + phenylboronic acid 15 mmol/L, 21 days
[32] = Feces 3, sugar 100 mmol/L, no phenylboronic acid, 0 days
[33] = Feces 3, sugar 100 mmol/L, no phenylboronic acid, 7 days
[34] = Feces 3, sugar 100 mmol/L, no phenylboronic acid, 14 days
[35] = Feces 3, sugar 100 mmol/L, no phenylboronic acid, 21 days
[36] = No feces, sugar 50 mmol/L + phenylboronic acid 15 mmol/L, 7 days
[37] = No feces, sugar 50 mmol/L + phenylboronic acid 15 mmol/L, 14 days
[38] = No feces, sugar 100 mmol/L + phenylboronic acid 15 mmol/L, 0 days
[39] = No feces, sugar 100 mmol/L + phenylboronic acid 15 mmol/L, 7 days
[40] = No feces, sugar 100 mmol/L + phenylboronic acid 15 mmol/L, 14 days
[41] = No feces, sugar 100 mmol/L + phenylboronic acid 15 mmol/L, 21 days
[42] = No feces, sugar 100 mmol/L, no phenylboronic acid, 7 days
[43] = No feces, sugar 100 mmol/L, no phenylboronic acid, 14 days
[44] = No feces, sugar 100 mmol/L, no phenylboronic acid, 21 days

SMILES: OC[C@H]1O[C@@](CO)(O[C@H]2O[C@H](CO)[C@@H](O)[C@H](O)[C@H]2O)[C@@H](O)[C@@H]1O [Sucrose, sucrose]
- Hb concentration [1]: 291 µg/L
- Recovery ratio with respect to Hb concentration after 0 days [1]: 100%
- Hb concentration [2]: 281 µg/L
- Recovery ratio with respect to Hb concentration after 0 days [2]: 97%
- Hb concentration [3]: 274 µg/L
- Recovery ratio with respect to Hb concentration after 0 days [3]: 94%
- Hb concentration [4]: 268 µg/L
- Recovery ratio with respect to Hb concentration after 0 days [4]: 92%
- Hb concentration [5]: 286 µg/L
- Recovery ratio with respect to Hb concentration after 0 days [5]: 100%
- Hb concentration [6]: 272 µg/L
- Recovery ratio with respect to Hb concentration after 0 days [6]: 95%
- Hb concentration [7]: 270 µg/L
- Recovery ratio with respect to Hb concentration after 0 days [7]: 94%
- Hb concentration [8]: 258 µg/L
- Recovery ratio with respect to Hb concentration after 0 days [8]: 90%
- Hb concentration [9]: 264 µg/L
- Recovery ratio with respect to Hb concentration after 0 days [9]: 100%
- Hb concentration [10]: 115 µg/L
- Recovery ratio with respect to Hb concentration after 0 days [10]: 44%
- Hb concentration [11]: 70 µg/L
- Recovery ratio with respect to Hb concentration after 0 days [11]: 27%
- Hb concentration [12]: 80 µg/L
- Recovery ratio with respect to Hb concentration after 0 days [12]: 30%
- Hb concentration [13]: 273 µg/L
- Recovery ratio with respect to Hb concentration after 0 days [13]: 100%
- Hb concentration [14]: 266 µg/L
- Recovery ratio with respect to Hb concentration after 0 days [14]: 97%
- Hb concentration [15]: 232 µg/L
- Recovery ratio with respect to Hb concentration after 0 days [15]: 85%
- Hb concentration [16]: 212 µg/L
- Recovery ratio with respect to Hb concentration after 0 days [16]: 78%
- Hb concentration [17]: 267 µg/L
- Recovery ratio with respect to Hb concentration after 0 days [17]: 100%
- Recovery ratio with respect to Hb concentration after 0 days (Feces 2, sugar 100 mmol/L + phenylboronic acid 15 mmol/L, 7 days): 96%
- Hb concentration [18]: 236 µg/L
- Recovery ratio with respect to Hb concentration after 0 days [18]: 88%
- Hb concentration [19]: 219 µg/L
- Recovery ratio with respect to Hb concentration after 0 days [19]: 82%
- Hb concentration [20]: 270 µg/L
- Recovery ratio with respect to Hb concentration after 0 days [20]: 100%
- Hb concentration [21]: 96 µg/L
- Recovery ratio with respect to Hb concentration after 0 days [21]: 36%
- Hb concentration [22]: 49 µg/L
- Recovery ratio with respect to Hb concentration after 0 days [22]: 18%
- Hb concentration [23]: 31 µg/L
- Recovery ratio with respect to Hb concentration after 0 days [23]: 11%
- Hb concentration [24]: 286 µg/L
- Recovery ratio with respect to Hb concentration after 0 days [24]: 100%
- Hb concentration [25]: 234 µg/L
- Recovery ratio with respect to Hb concentration after 0 days [25]: 82%
- Hb concentration [26]: 209 µg/L
- Recovery ratio with respect to Hb concentration after 0 days [26]: 73%
- Hb concentration [27]: 195 µg/L
- Recovery ratio with respect to Hb concentration after 0 days [27]: 68%
- Hb concentration [28]: 272 µg/L
- Recovery ratio with respect to Hb concentration after 0 days [28]: 100%
- Hb concentration [29]: 230 µg/L
- Recovery ratio with respect to Hb concentration after 0 days [29]: 85%
- Hb concentration [30]: 201 µg/L
- Recovery ratio with respect to Hb concentration after 0 days [30]: 74%
- Hb concentration [31]: 187 µg/L
- Recovery ratio with respect to Hb concentration after 0 days [31]: 69%
- Hb concentration [32]: 267 µg/L
- Recovery ratio with respect to Hb concentration after 0 days [32]: 100%
- Hb concentration [33]: 89 µg/L
- Recovery ratio with respect to Hb concentration after 0 days [33]: 33%
- Hb concentration [34]: 55 µg/L
- Recovery ratio with respect to Hb concentration after 0 days [34]: 21%
- Hb concentration [35]: 40 µg/L
- Recovery ratio with respect to Hb concentration after 0 days [35]: 15%
- Recovery ratio with respect to Hb concentration after 0 days (No feces, sugar 50 mmol/L + phenylboronic acid 15 mmol/L, 0 days): 100%
- Hb concentration [36]: 253 µg/L
- Recovery ratio with respect to Hb concentration after 0 days [36]: 93%
- Hb concentration [37]: 246 µg/L
- Recovery ratio with respect to Hb concentration after 0 days [37]: 91%
- Recovery ratio with respect to Hb concentration after 0 days (No feces, sugar 50 mmol/L + phenylboronic acid 15 mmol/L, 21 days): 95%
- Hb concentration [38]: 267 µg/L
- Recovery ratio with respect to Hb concentration after 0 days [38]: 100%
- Hb concentration [39]: 247 µg/L
- Recovery ratio with respect to Hb concentration after 0 days [39]: 93%
- Hb concentration [40]: 241 µg/L
- Recovery ratio with respect to Hb concentration after 0 days [40]: 90%
- Hb concentration [41]: 260 µg/L
- Recovery ratio with respect to Hb concentration after 0 days [41]: 97%
- Recovery ratio with respect to Hb concentration after 0 days (No feces, sugar 100 mmol/L, no phenylboronic acid, 0 days): 100%
- Hb concentration [42]: 228 µg/L
- Recovery ratio with respect to Hb concentration after 0 days [42]: 93%
- Hb concentration [43]: 223 µg/L
- Recovery ratio with respect to Hb concentration after 0 days [43]: 91%
- Hb concentration [44]: 222 µg/L
- Recovery ratio with respect to Hb concentration after 0 days [44]: 91%
- recovery ratio of hemoglobin in the sample (sugar 100 mmol/L further added to other arylboronic acids (3-CPBA, 3-HPBA, 3-APBA) 15 mmol/L, Feces 1, Feces 2, Feces 3): further improved
- recovery ratio of hemoglobin in the samples containing fecal specimens (sugar 100 mmol/L, preservation solutions containing no phenylboronic acid): does not improve
- recovery ratio of hemoglobin in the sample (sugar 50 or 100 mmol/L further added to phenylboronic acid 15 mmol/L, Feces 1, Feces 2, Feces 3): further improved
- recovery ratio of hemoglobin in the samples containing feces (sugar added to phenylboronic acid 15 mmol/L, Feces 1, Feces 2, Feces 3): improved depending on the added concentration
